Measured values reported in US20260373266A1, “PROTEIN DEGRADERS AND USES THEREOF” (KYMERA THERAPEUTICS, INC., priority 2022, published 2026).

biological target: T1, DCAF1 WD40 domain (residues 1077-1390) (Homo sapiens, UniProt Q9Y4B6); assay: DCAF1 binding assay by SPR (Biacore 8K+), DCAF1-3 KD; conditions: 25 °C, read-out: DCAF1-3 SPR (KD)
T1 construct: DCAF1 WD40 domain (residues 1077-1390)
T1 sequence (Q9Y4B6 1077-1390): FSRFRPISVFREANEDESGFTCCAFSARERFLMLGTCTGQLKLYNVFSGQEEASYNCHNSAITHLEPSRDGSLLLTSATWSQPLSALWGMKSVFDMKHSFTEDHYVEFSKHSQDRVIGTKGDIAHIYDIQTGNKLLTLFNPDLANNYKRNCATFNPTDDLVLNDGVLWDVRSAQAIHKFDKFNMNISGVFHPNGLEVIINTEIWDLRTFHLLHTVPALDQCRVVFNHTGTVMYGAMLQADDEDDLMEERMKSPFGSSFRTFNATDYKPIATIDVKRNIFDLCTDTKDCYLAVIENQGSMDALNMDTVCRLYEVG

SMILES	Kd
c1ccc2c(N3CCC[C@@H](Nc4cc(N5CCOCC5)ncn4)C3)nccc2c1 [I-390]	> 200 µM
c1ccc2c(N3CCC[C@@H](Nc4cc(N5CCOCC5)ncn4)C3)cncc2c1 [I-391]	> 200 µM
c1ccc2c(N3CCC[C@@H](Nc4cc(N5CCOCC5)ncn4)C3)ccnc2c1 [I-392]	> 200 µM
c1cc(N2CCC[C@@H](Nc3cc(N4CCOCC4)ncn3)C2)c2cccnc2c1 [I-393]	> 200 µM
c1cc(N2CCC[C@@H](Nc3cc(N4CCOCC4)ncn3)C2)c2ccncc2c1 [I-394]	> 200 µM
c1cc(N2CCC[C@@H](Nc3cc(N4CCOCC4)ncn3)C2)c2cnccc2c1 [I-395]	> 200 µM
c1cnc2c(N3CCC[C@@H](Nc4cc(N5CCOCC5)ncn4)C3)cccc2c1 [I-396]	> 200 µM
c1ccc2nc(N3CCC[C@@H](Nc4cc(N5CCOCC5)ncn4)C3)ccc2c1 [I-397]	> 200 µM
c1ccc2cc(N3CCC[C@@H](Nc4cc(N5CCOCC5)ncn4)C3)ncc2c1 [I-398]	> 200 µM
c1ccc2ncc(N3CCC[C@@H](Nc4cc(N5CCOCC5)ncn4)C3)cc2c1 [I-399]	> 200 µM
c1cnc2ccc(N3CCC[C@@H](Nc4cc(N5CCOCC5)ncn4)C3)cc2c1 [I-400]	> 200 µM
c1cc2cc(N3CCC[C@@H](Nc4cc(N5CCOCC5)ncn4)C3)ccc2cn1 [I-401]	> 200 µM
c1cc2ccc(N3CCC[C@@H](Nc4cc(N5CCOCC5)ncn4)C3)cc2cn1 [I-402]	> 200 µM
c1cnc2cc(N3CCC[C@@H](Nc4cc(N5CCOCC5)ncn4)C3)ccc2c1 [I-403]	> 200 µM
Cc1cnc(N2CCOCC2)cc1N[C@@H]1CCCN(c2cccc(F)c2)C1 [I-404]	> 200 µM
Fc1cccc(N2CCC[C@@H](Nc3cc(N4CCOCC4)ncc3C(F)(F)F)C2)c1 [I-405]	> 200 µM
Fc1cccc(N2CCC[C@@H](Nc3cc(N4CCOCC4)ncc3Cl)C2)c1 [I-406]	> 200 µM
COc1cnc(N2CCOCC2)cc1N[C@@H]1CCCN(c2cccc(F)c2)C1 [I-407]	> 200 µM

SMILES	Kd
N#Cc1cnc(N2CCOCC2)cc1N[C@@H]1CCCN(c2cccc(F)c2)C1 [I-408]	> 200 µM
Oc1cnc(N[C@@H]2CCCN(c3cccc(F)c3)C2)cc1N1CCOCC1 [I-409]	> 200 µM
OCc1cnc(N2CCOCC2)cc1N[C@@H]1CCCN(c2cccc(F)c2)C1 [I-410]	> 200 µM
Cc1sc(N2CCC[C@@H](Nc3cc(N4CCOCC4)ccn3)C2)nc1-c1ccccc1 [I-411]	> 200 µM
c1cncc(-c2csc(N3CCC[C@@H](Nc4cc(N5CCOCC5)ccn4)C3)n2)c1 [I-412]	> 200 µM
NS(=O)(=O)c1nc(N2CCC[C@@H](Nc3cc(N4CCOCC4)ccn3)C2)cs1 [I-413]	> 200 µM
N#Cc1nccc(N2CCC[C@@H](Nc3cc(N4CCOCC4)ccn3)C2)n1 [I-414]	> 200 µM
Cc1nc(N2CCC[C@@H](Nc3cc(N4CCOCC4)ccn3)C2)nc2ccccc12 [I-415]	10 to 100 µM
c1cncc(-c2ccnc(N3CCC[C@@H](Nc4cc(N5CCOCC5)ccn4)C3)n2)c1 [I-416]	10 to 100 µM
c1cnc2c(N3CCC[C@@H](Nc4cc(N5CCOCC5)ccn4)C3)cnn2c1 [I-417]	> 200 µM
Cc1nn(-c2ccccc2)c(C)c1N1CCC[C@@H](Nc2cc(N3CCOCC3)ccn2)C1 [I-418]	> 200 µM
CN1CCC(n2cc(N3CCC[C@@H](Nc4cc(N5CCOCC5)ccn4)C3)cn2)CC1 [I-419]	> 200 µM
c1ccc(Cn2cc(N3CCC[C@@H](Nc4cc(N5CCOCC5)ccn4)C3)cn2)cc1 [I-420]	> 200 µM
CC(C)Cn1cc(N2CCC[C@@H](Nc3cc(N4CCOCC4)ccn3)C2)cn1 [I-421]	> 200 µM
Cc1nn(CC(F)(F)F)cc1N1CCC[C@@H](Nc2cc(N3CCOCC3)ccn2)C1 [I-422]	> 200 µM
c1ccc2c(c1)nc(N1CCC[C@@H](Nc3cc(N4CCOCC4)ccn3)C1)c1nnnn12 [I-423]	> 200 µM
N#Cc1ncccc1N1CCC[C@@H](Nc2cc(N3CCOCC3)ccn2)C1 [I-424]	> 200 µM
O=C1Cc2cc(N3CCC[C@@H](Nc4cc(N5CCOCC5)ccn4)C3)ncc2N1 [I-425]	> 200 µM
